Measured values reported in patent US20240174980A1, “PROCESS FOR MANUFACTURE OF A COMPOSITION FOR THE TREATMENT OF OSTEOARTHRITIS IN A SUBJECT” (STEM CELLX EUROPE KFT, priority 2021, published 2024).

System: GADD45, CEBPb and MMP13 expression in differentiating canine MSCs
Experiment: Expression of hypertrophic chondrocyte markers (relative RNA levels) during chondrogenic differentiation
Format: cell-based
Details: relative RNA levels at days 10 and 24 of chondrogenic differentiation
Experimental: (§1) 1B depicts the experiment in which we added 30 ng/ml kynurenine to the differentiating MSCs to examine its effect on the markers of hypertrophic chondrocytes. In the experiment, we measured the expression of the two main regulatory transcription factors of hypertrophic chondrocyte differentiation, factors GADD45 and CEBPb, and of their target, matrix metalloproteinase-13 (MMP13), by measuring their relative RNA levels on days 10 (early) and 24 (mature) of chondrogenic differentiation.
as §1, with “2B” for “1B”, “50” for “30”, “THBS1” for “kynurenine”
During the analysis, first we quantified the levels of KYNA produced in canine AD-MSCs derived from 8 independent donations by ELISA in passage 3 cultures. […]
In another analysis, we quantified the levels of THBS1 produced in the AD-MSCs derived from 8 independent donations by ELISA in passage 3 cultures. […]

Compound | Effect on hypertrophic chondrocyte phenotype (expression of GADD45, CEBPb and MMP13) (30 ng/ml KYNA added at day 7) | Effect on hypertrophic chondrocyte phenotype (expression of GADD45, CEBPb and MMP13) (50 ng/ml THBS1 added at day 7)
Nc1ccccc1C(=O)CC(N)C(=O)O (centres unmarked) [KYNA, kynurenine] | able to suppress the hypertrophic chondrocyte phenotype | 
THBS1: Thrombospondin 1, adhesive glycoprotein encoded by the THBS1 gene, added to differentiating MSCs at 50 ng/ml |  | sufficient to suppress the hypertrophic chondrocyte phenotype
